The results in this text go back to patent US20250066370A1, “BICYCLIC TRIAZINE DERIVATIVES FOR THE TREATMENT OF CANCER” (DEUTSCHES KREBSFORSCHUNGSZENTRUM, priority 2022, published 2025).

In assay [1] the test system is BRCA1 mRNA expression in MDA-MB-231 cells. As to the kind of experiment: qRT-PCR assay: inhibition of BRCA1 mRNA expression in MDA-MB-231 cells. Format: cell-based. As to conditions: Homo sapiens, 24 h exposure, BRCA1 normalised to GAPDH, median, read-out: RTqPCR-MDA-MB-231, IC50 [mol/l], BRCA1 (median). The protocol: 3. qRT-PCR Assay: BRCA1, ATR, MCL1 in MDA-MB-231, CAL-120
Tissue cultured human MDA-MB-231 human breast cancer cells were plated in 500 microL per well at 200,000 cells/well in a 24 well microtiter plate. After 24 h, the cells were exposed continuously for 24 h to test substances (substances were added with Tecan HP D300 Dispenser). RNA was prepared using Qiagen RNeasy MiniKit (#74106), RNA was quantified using a NanoDrop Equipment, and 600 nano grams of RNA was converted to cDNA using a SuperScript VILO kit (Thermofisher #11755050) followed by qPCR amplification. BRCA1 and ATR gene expression was measured by RT-qPCR and normalised to GAPDH housekeeping gene expression. qPCR primer sets have been purchased from Thermo Fisher Scientific/Applied Biosystems: BRCA1, #Hs 01556193; ATR. #Hs 00992123: GAPDH. #Hs 03929097.

In a further assay the target is CDK2/CyclinE (Homo sapiens (Human), UniProt P24941). As to the kind of experiment: CDK2/CycE kinase assay (TR-FRET). Format: biochemical. As to conditions: 2 mM ATP (high ATP); median; read-out: CDK2/CyclinE, 2 mM ATP (high ATP), IC50 - [mol/l] (median). The source says: CDK2/CycE-inhibitory activity of compounds of the present invention was quantified employing the CDK2/CycE TR-FRET assay as described in the following paragraphs.
Recombinant fusion proteins of GST and human CDK2 and of GST and human CycE, expressed in insect cells (Sf9) and purified by Glutathion-Sepharose affinity chromatography, were purchased from ProQinase GmbH (Freiburg, Germany). As substrate for the kinase reaction biotinylated peptide biotin-Ttds-YISPLKSPYKISEG (C-terminus in amid form) was used which can be purchased e.g. form the company JERINI peptide technologies (Berlin, Germany).
For the assay 50 nanoL of a 100 fold concentrated solution of the test compound in DMSO was pipetted into a black low volume 384 well microtiter plate or a black 1536 well microtiter plate (both Greiner Bio-One, Frickenhausen, Germany), 2 microL of a solution of CDK2/CycE in aqueous assay buffer [50 millimol/L Tris/HCl PH 8.0, 10 millimol/L MgCl2, 1.0 millimol/L dithiothreitol, 0.1 millimol/L sodium ortho-vanadate, 0.01% (v/v) Nonidet-P40 (Sigma)] were added and the mixture was incubated for 15 min at 22° C. to allow pre-binding of the test compounds to the enzyme before the start of the kinase reaction. Then the kinase reaction was started by the addition of 3 microL of a solution of adenosine-tri-phosphate (ATP, 3.33 millimol/L=>final conc. in the 5 microL assay volume is 2 millimol/L) and substrate (1.25 micromol/L=>final conc. in the 5 microL assay volume is 0.75 micromol/L) in assay buffer and the resulting mixture was incubated for a reaction time of 25 min at 22° C. The concentration of CDK2/CycE was adjusted depending of the activity of the enzyme lot and was chosen appropriate to have the assay in the linear range, typical concentrations were in the range of 10 ng/ml. The reaction was stopped by the addition of 3 microL of a solution of TR-FRET detection reagents (0.333 micromol/L streptavidine-XL665 [Cisbio Bioassays, Codolet, France] and 1.67 nanomol/L anti-RB (pSer807/pSer811)-antibody from BD Pharmingen [#558389] and 2 nanomol/L LANCE EU-W1024 labeled anti-mouse IgG antibody [Perkin-Elmer, product no. AD0077, as an alternative a Terbium-cryptate-labeled anti-mouse IgG antibody from Cisbio Bioassays can be used]) in an aqueous EDTA-solution (167 millimol/L EDTA, 0.2% (w/v) bovine serum albumin in 100 millimol/L HEPES pH 7.5).
The resulting mixture was incubated 1 h at 22° C. to allow the formation of complex between the phosphorylated biotinylated peptide and the detection reagents. Subsequently the amount of phosphorylated substrate was evaluated by measurement of the resonance energy transfer from the Eu-chelate to the streptavidine-XL. Therefore, the fluorescence emissions at 620 nm and 665 nm after excitation at 350 nm was measured in a TR-FRET reader, e.g. a Pherastar (BMG Labtechnologies, Offenburg, Germany) or a Viewlux (Perkin-Elmer). The ratio of the emissions at 665 nm and at […] was taken as the measure for the amount of phosphorylated substrate. The data were normalised (enzyme reaction without inhibitor=0% inhibition, all other assay components but no enzyme=100% inhibition).

Turning to `FC(F)(F)c1ccc(-c2nnc(CNc3nc(N4CCOCC4)nn4c(C(F)(F)F)cnc34)[nH]2)cn1` [Example 20, 2-(morpholin-4-yl)-7-(trifluoromethyl)-N-({5-[6-(trifluoromethyl)pyridin-3-yl]-4H-1,2,4-triazol-3-yl}methyl)imidazo[2,1-f][1,2,4]triazin-4-amine], the IC50 in assay [1] is 53.8 nM; on CDK2/CyclinE, over 5.71 µM.

With `COc1ccc(-c2cnc(CNc3nc(N4CCOCC4)nc4c(C(F)(F)F)cnn34)[nH]2)cn1` [Example 21, N-{[5-(6-methoxypyridin-3-yl)-1H-imidazol-2-yl]methyl}-2-(morpholin-4-yl)-8-(trifluoromethyl)pyrazolo[1,5-a][1,3,5]triazin-4-amine], the IC50 in assay [1] was determined as 98.8 nM; at CDK2/CyclinE it was 6.39 µM.

For `Cc1ccc(-c2nnc(CNc3nc(N4CCOCC4)nn4c(C(F)(F)F)cnc34)[nH]2)cn1` [Example 23, N-{[5-(6-methylpyridin-3-yl)-4H-1,2,4-triazol-3-yl]methyl}-2-(morpholin-4-yl)-7-(trifluoromethyl)imidazo[2,1-f][1,2,4]triazin-4-amine], the values for the IC50 (in assay [1]; on CDK2/CyclinE) were 102 nM and 2.86 µM, respectively.
